Publication PMC4871321 (Angewandte Chemie (Weinheim an Der Bergstrasse, Germany), 2015)

Molecular target: T1, BRD4(1) (Homo sapiens, UniProt O60885)
T1 construct: first bromodomain
Experiment: biochemical
Set-up: differential scanning fluorimetry, SYPRO Orange, shift of melting temperature of 2 uM bromodomain
Details: read-out: BRD4(1) ΔTm (°C)

ΔTm at 10 µM [°C]	Compound
0.33	Cc1cc(=O)n(C)c2cc(N3C(=O)CC[C@H](NC(=O)OC(C)(C)C)[C@H]3C)ccc12 (relative stereo) [compound 21, 21]
0.19	Cc1cc(=O)n(C)c2cc(N3C[C@@H](NC(=O)OC(C)(C)C)[C@H](C)CC3=O)ccc12 (relative stereo) [compound 22, 22]
